Data: patent publication US20150087627A1, “COMBINATION OF KINASE INHIBITORS AND USES THEREOF” (Intellikine LLC, priority 2011, published 2015)

How the values were obtained:
[1] = test system: anti-TNP antibody production; assay: TNP-Ficoll T-cell independent B-cell activation assay; format: in vivo, mice; conditions: 30, 60 or 120 mg/kg for 7 days, FIG. 8
Description: To test the effects of the compounds of the present invention in suppressing T cell independent antibody production, the TNP-Ficoll B-cell activation assay is used as described herein. Compounds of the present invention are dissolved in an appropriate vehicle (e.g. 5% 1-methyl-2-pyrrolidinone, 85% polyethylene glycol 400, 10% Solutor). Compounds are administered orally approximately 1 hr before TNP-Ficoll treatment to 4-10 week old mice. To study the effects of the compounds on B-cell activation, one set of mice are grouped according to the following table:
Four animals in group 1, and eight animals in groups 2 to 7 are euthanized in CO2 2 hours after the last compound administration on day 7. […]
Serum samples are analyzed for anti-TNP antibody titers by ELISA as described herein. […] HRP substrate (200 μl ABTS solution+30% H2O2+10 ml citrate buffer) is added to each well at 100 μl/well, incubated 2-20 minutes in the dark and the amount of anti-TNP IgG3 is determined spectrophotometrically at 405 nm. Similarly, anti-TNP IgM and total anti-TNP Ab are determined using anti-mouse IgM-HRP and anti-mouse Ig-HRP respectively.
Antibody production was measured using ELISA and plotted as a percentage of control group that were treated with vehicle.

PI3K α (p110α/p85α) = target: T1, PI3K α (p110α/p85α) (Homo sapiens, UniProt P42336); assay: PI 3-Kinase (human) HTRF assay, PI3K α; format: biochemical; conditions: over mTOR and other PI3K isoforms; FIG. 6C
T1 construct: purchased Upstate / Millipore Corporation

[2] = test system: tumor cells harboring PI3K α mutations; assay: Tumor cell proliferation panel (FIG. 13); format: cell-based
[3] = test system: MDA-MB-361 (PI3Kα/HER2 carcinoma) tumors; assay: In vivo efficacy in xenogenic mouse model of breast cancer; parameters: species or system Nude mice; conditions: 60 mg/kg, FIG. 9 left panel
Description: Blood glucose was monitored periodically following administration of treatment.
Treatment of tumors (MDA-MB-361) with compounds was discontinued on Day 30. Tumors were measured every 2-5 days.

[4] = test system: MDA-MB-361, MDA-MB-453 and SKBr3 breast cancer cells; assay: Western blot of PI3K pathway in cell lines with elevated PI3K α activity (FIG. 11); format: cell-based; conditions: cell lines with elevated PI3K α activity: MDA-MB-361, MDA-MB-453 (PIK3CA mutation), SKBr3 (HER2)
PC3 cells = assay: Proliferation of tumor cells (CellTiter-Glo); format: cell-based, human; conditions: read-out: cell proliferation IC50
Description: (§1) Cells comprising one or more mutations in PI3Kα, including but not limited to breast cancer cells (e.g., MDA-MB-361, T47D, SKOV-3), and cells comprising one or more mutations in PTEN including but not limited to prostate cancer cells (e.g., PC3), are typically grown in cell growth media such as DMEM supplemented with fetal bovine serum and/or antibiotics, and grown to confluency. Cells are then treated with various concentrations of test compound for about 2 hours and subsequently lysed in cell lysis buffer. Lysates are subjected to SDS-PAGE followed by Western blot analysis to detect downstream signaling markers, including but not limited to pAKT(S473), pAKT(T308), pS6, and p4E-BP1.
Cells were seeded at 5000-10,000 per well in a 96 well flat bottom plate 90 ul growth media. Pre-diluted compound (at 10 times the final concentration) or DMSO (control) was added. The compounds were prepared such that the dose range extended from a final concentration of 30 μM to 14 nM via 3-fold serial dilutions (8 point curve). The final DMSO concentration was 0.3%. Cells were incubated for 72 hours at 37° C. in a CO2 incubator. After 72 hours, proliferation was measured using CellTiter-Glo Luminescent reagent (Promega, PR-G7573). […] Luminescence was read on a PerkinElmer EnVision plate reader. […] Inhibition % was calculated as: 1−(cells+inhibitor)−background signal)/(cells+DMSO)−background signal)×100.

[5] = Steady state blood glucose in nude mice (Example 41); format: in vivo, Mus musculus; conditions: mean AUC after the last dose (Day 28)
Description: Blood glucose levels were measured via a tail knick using Abbott's “Freestyle Lite” Handheld Blood Glucose Monitor (Abbott Laboratories) at 15, 30, 60, 90, 120, and 1440 minutes after the last dose (Day 28).

pAKT in PC3 cells = assay: Inhibition of PI3K pathway, pAKT Western blot; format: cell-based, human; conditions: PC3 model, FIG. 7
Description: as §1

Akt phosphorylation = assay: Western blot of Akt phosphorylation at serine 473 and threonine 308 (FIG. 7); format: cell-based; conditions: serine 473 versus threonine 308
[6] = test system: mTORC1-dependent NRDG1 phosphorylation; assay: Western blot of NRDG1 phosphorylation (FIG. 5B); format: cell-based

T1 sequence (P42336 whole entry, canonical isoform): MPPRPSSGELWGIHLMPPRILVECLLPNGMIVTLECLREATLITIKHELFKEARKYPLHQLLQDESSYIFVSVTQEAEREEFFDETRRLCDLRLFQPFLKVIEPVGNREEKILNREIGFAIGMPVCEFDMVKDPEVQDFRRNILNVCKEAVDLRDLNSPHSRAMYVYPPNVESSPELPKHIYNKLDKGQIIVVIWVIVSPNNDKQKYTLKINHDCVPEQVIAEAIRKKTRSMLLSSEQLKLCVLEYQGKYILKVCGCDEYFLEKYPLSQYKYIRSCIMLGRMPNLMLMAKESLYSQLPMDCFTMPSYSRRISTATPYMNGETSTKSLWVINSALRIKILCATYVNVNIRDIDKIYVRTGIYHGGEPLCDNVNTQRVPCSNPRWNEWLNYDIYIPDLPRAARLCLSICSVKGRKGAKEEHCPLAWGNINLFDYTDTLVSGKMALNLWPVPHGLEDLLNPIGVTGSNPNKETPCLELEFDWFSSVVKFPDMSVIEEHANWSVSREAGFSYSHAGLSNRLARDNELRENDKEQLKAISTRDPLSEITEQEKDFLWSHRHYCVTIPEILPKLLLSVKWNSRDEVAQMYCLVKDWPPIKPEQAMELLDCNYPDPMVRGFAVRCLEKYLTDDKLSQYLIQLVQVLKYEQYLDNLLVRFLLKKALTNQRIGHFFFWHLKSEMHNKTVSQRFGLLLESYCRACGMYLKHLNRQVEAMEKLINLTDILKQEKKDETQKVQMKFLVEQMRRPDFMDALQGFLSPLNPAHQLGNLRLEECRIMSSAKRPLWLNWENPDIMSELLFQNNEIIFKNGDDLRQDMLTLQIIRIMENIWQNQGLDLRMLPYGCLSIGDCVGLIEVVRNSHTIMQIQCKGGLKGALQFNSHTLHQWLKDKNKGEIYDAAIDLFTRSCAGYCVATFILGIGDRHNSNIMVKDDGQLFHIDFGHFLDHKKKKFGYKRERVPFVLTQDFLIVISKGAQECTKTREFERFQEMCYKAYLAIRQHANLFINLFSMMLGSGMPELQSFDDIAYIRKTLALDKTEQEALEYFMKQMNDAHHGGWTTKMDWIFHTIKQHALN
T1 sequence (P27986 whole entry partner, canonical isoform): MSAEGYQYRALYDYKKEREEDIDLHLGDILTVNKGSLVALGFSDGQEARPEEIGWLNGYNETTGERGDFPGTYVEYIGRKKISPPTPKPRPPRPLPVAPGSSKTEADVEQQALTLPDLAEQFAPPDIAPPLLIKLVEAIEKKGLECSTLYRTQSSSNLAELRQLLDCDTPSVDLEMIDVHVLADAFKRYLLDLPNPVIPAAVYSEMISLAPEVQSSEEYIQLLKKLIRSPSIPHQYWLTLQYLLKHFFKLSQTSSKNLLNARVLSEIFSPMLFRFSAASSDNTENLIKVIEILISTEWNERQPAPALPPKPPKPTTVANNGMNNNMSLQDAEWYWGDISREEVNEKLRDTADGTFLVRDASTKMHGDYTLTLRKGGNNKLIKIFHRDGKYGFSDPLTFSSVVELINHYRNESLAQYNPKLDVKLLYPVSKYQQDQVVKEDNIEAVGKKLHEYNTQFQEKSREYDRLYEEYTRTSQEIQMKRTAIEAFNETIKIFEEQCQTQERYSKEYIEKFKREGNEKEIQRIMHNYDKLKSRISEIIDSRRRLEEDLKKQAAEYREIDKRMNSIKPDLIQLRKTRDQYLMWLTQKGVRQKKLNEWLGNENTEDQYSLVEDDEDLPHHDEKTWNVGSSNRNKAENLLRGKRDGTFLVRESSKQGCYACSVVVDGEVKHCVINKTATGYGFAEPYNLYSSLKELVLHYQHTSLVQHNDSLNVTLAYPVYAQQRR

Compound	B cell function in vivo (antibody production, ELISA) [1]	specificity in inhibiting PI3K α (PI3K α (p110α/p85α))	proliferation of tumor cells [2]	tumor weight [3]	inhibition of the PI3K pathway [4]	IC50 (PC3 cells) [µM]	Blood Glucose Fold Over Vehicle Control ([5]; 60 mg/kg QD) [fold]	Blood Glucose Fold Over Vehicle Control ([5]; 70 mg/kg QD 3on/4off) [fold]	Blood Glucose Fold Over Vehicle Control ([5]; 140 mg/kg QD 3on/4off) [fold]	Blood Glucose Fold Over Vehicle Control ([5]; 210 mg/kg QW) [fold]	inhibition of Akt phosphorylation, serine 473 vs threonine 308 (pAKT in PC3 cells)	inhibition of Akt phosphorylation (Akt phosphorylation)	sensitivity of mTORC1-dependent NRDG1 phosphorylation [6]
Nc1nc2cc(-c3ccc4ncc(C(=O)N5CCOCC5)n4c3)ccc2o1 [Compound A]	not	specificity of Compound A in inhibiting PI3K α over mTOR and other PI3K isoforms	preferentially inhibits proliferation of tumor cells harboring PI3K α mutations	reduction in tumor weight	inhibition of the PI3K pathway	> 10	0.97	1.02	1.26	1.16			
CC(C)n1nc(-c2ccc3oc(N)nc3c2)c2c(N)ncnc21 [Compound B]											differential inhibition of Akt phosphorylation at serine 473 over threonine 308	differential inhibition of Akt phosphorylation at serine 473 over threonine 308	sensitivity
